{"source": "patent US20190083563A1", "about": "(priority 2014, published 2019)", "key": {"influenza virus H1N1 [1]": {"tested_on": "influenza virus H1N1", "experiment": "Investigation on cell binding of influenza virus (virus and sample mixed, 4° C., MTT cell viability)", "assay_type": "cell-based, influenza A virus"}, "influenza virus H1N1 [2]": {"tested_on": "influenza virus H1N1", "assay_type": "cell-based, influenza A virus"}, "influenza A virus H1N1": {"tested_on": "influenza A virus H1N1", "experiment": "microbe, parasite or virus in culture", "assay_type": "cell-based"}, "influenza A virus H3N2": {"tested_on": "influenza A virus H3N2", "experiment": "microbe, parasite or virus in culture", "assay_type": "cell-based"}, "influenza A virus H5N1": {"tested_on": "influenza A virus H5N1", "experiment": "microbe, parasite or virus in culture", "assay_type": "cell-based"}, "influenza B virus": {"tested_on": "influenza B virus", "experiment": "microbe, parasite or virus in culture", "assay_type": "cell-based"}, "in vitro": {"experiment": "in vitro", "conditions": "dog"}}, "data": [{"smiles": "CCOC(=O)C1=C[C@@H](OC(CC)CC)[C@H](NC(C)=O)[C@@H](N)C1", "note": "[Tamiflu]", "values": [{"measurement": "antiviral effect in virus binding test", "setting": "influenza virus H1N1 [1]", "value": "no antiviral effect"}, {"measurement": "CPE of cells, virus preventive effect", "setting": "influenza virus H1N1 [2]", "value": "all the cells treated with Tamiflu were dead"}, {"measurement": "observing the cells using a microscope, virus preventive effect", "setting": "influenza virus H1N1 [2]", "value": "infected cell state"}, {"measurement": "observing the cells by a microscope, post-treatment", "setting": "influenza A virus H1N1", "value": "many cells were infected and dead"}, {"measurement": "SI", "setting": "influenza A virus H1N1; H1N1, CC50 value divided by the EC50 value", "value": 317}, {"measurement": "EC50", "setting": "influenza A virus H1N1; Influenza A virus, H1N1, MDCK cells, post-treatment, 48 hours", "value": 3.5, "unit": "µg/mL"}, {"measurement": "SI", "setting": "influenza A virus H3N2; H3N2, CC50 value divided by the EC50 value", "value": 317}, {"measurement": "EC50", "setting": "influenza A virus H3N2; Influenza A virus, H3N2, MDCK cells, post-treatment, 48 hours", "value": 3.5, "unit": "µg/mL"}, {"measurement": "SI", "setting": "influenza A virus H5N1; H5N1, CC50 value divided by the EC50 value", "value": 740}, {"measurement": "EC50", "setting": "influenza A virus H5N1; Influenza A virus, H5N1, MDCK, 48 h", "value": 1.5, "unit": "µg/mL"}, {"measurement": "SI", "setting": "influenza B virus; CC50 value divided by the EC50 value", "value": 81}, {"measurement": "EC50", "setting": "influenza B virus; MDCK cells, post-treatment, 48 hours", "value": 13.7, "unit": "µg/mL"}, {"measurement": "CC50", "setting": "in vitro", "value": 1110, "unit": "µg/mL"}]}]}
